Assay results from PubChem BioAssay (NCI).
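1) Cells in 96-well plates. 2) Compound, 48 h, 5 concentrations. 3) Linear interpolation between surrounding doses. 4) Unreached endpoint = highest concentration. Abbreviation: GI50, concentration required for 50% inhibition of growth. TGI is the concentration that stops growth completely.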

Columns and labels:
Test in all cases: NCI tumour cell line growth inhibition, 48 h
786-0 renal = test system: 786-0 renal
A498 renal = test system: A498 renal
A549 NSCLC = test system: A549 NSCLC
ACHN renal = test system: ACHN renal
BT-549 breast = test system: BT-549 breast
CAKI-1 renal = test system: CAKI-1 renal
CCRF-CEM leukemia = test system: CCRF-CEM leukemia
COLO 205 colon = test system: COLO 205 colon
DU-145 prostate = test system: DU-145 prostate
EKVX NSCLC = test system: EKVX NSCLC
HCC-2998 colon = test system: HCC-2998 colon
HCT-116 colon = test system: HCT-116 colon
HCT-15 colon = test system: HCT-15 colon
HL-60(TB) leukemia = test system: HL-60(TB) leukemia
HOP-62 NSCLC = test system: HOP-62 NSCLC
HOP-92 NSCLC = test system: HOP-92 NSCLC
HS 578T breast = test system: HS 578T breast
HT29 colon = test system: HT29 colon
IGROV1 ovarian = test system: IGROV1 ovarian
K-562 leukemia = test system: K-562 leukemia
KM12 colon = test system: KM12 colon
LOX IMVI melanoma = test system: LOX IMVI melanoma
M14 melanoma = test system: M14 melanoma
MALME-3M melanoma = test system: MALME-3M melanoma
MCF7 breast = test system: MCF7 breast
MDA-MB-231 breast = test system: MDA-MB-231 breast
MDA-MB-435 = test system: MDA-MB-435
MOLT-4 leukemia = test system: MOLT-4 leukemia
NCI-H226 lung = test system: NCI-H226 lung
NCI-H23 lung = test system: NCI-H23 lung
NCI-H460 lung = test system: NCI-H460 lung
NCI-H522 lung = test system: NCI-H522 lung
NCI/ADR-RES ovarian = test system: NCI/ADR-RES ovarian
OVCAR-3 ovarian = test system: OVCAR-3 ovarian
OVCAR-4 ovarian = test system: OVCAR-4 ovarian
OVCAR-5 ovarian = test system: OVCAR-5 ovarian
OVCAR-8 ovarian = test system: OVCAR-8 ovarian
PC-3 prostate = test system: PC-3 prostate
RPMI-8226 leukemia = test system: RPMI-8226 leukemia
RXF 393 renal = test system: RXF 393 renal
SF-268 CNS = test system: SF-268 CNS
SF-295 CNS = test system: SF-295 CNS
SF-539 CNS = test system: SF-539 CNS
SK-MEL-2 melanoma = test system: SK-MEL-2 melanoma
SK-MEL-28 melanoma = test system: SK-MEL-28 melanoma
SK-MEL-5 melanoma = test system: SK-MEL-5 melanoma
SK-OV-3 ovarian = test system: SK-OV-3 ovarian
SN12C renal = test system: SN12C renal
SNB-19 CNS = test system: SNB-19 CNS
SNB-75 CNS = test system: SNB-75 CNS
SR leukemia = test system: SR leukemia
SW-620 colon = test system: SW-620 colon
T-47D breast = test system: T-47D breast
TK-10 renal = test system: TK-10 renal
U251 CNS = test system: U251 CNS
UACC-257 melanoma = test system: UACC-257 melanoma
UACC-62 melanoma = test system: UACC-62 melanoma
UO-31 renal = test system: UO-31 renal

Question: How did the GI50 (786-0 renal) turn out when CCCCCCCCCCC[C@@H](C[C@H]1OC(=O)[C@H]1CCCCCC)OC(=O)[C@@H](CC(C)C)NC=O was run?
Answer: 2.42 µM

Question: What about the TGI (786-0 renal) of the same molecule?
Answer: 18.7 µM

Question: And the GI50 (A498 renal)?
Answer: 4.64 µM

Question: What about the TGI (A498 renal) of the same molecule?
Answer: 29.9 µM

Question: And the GI50 (A549 NSCLC)?
Answer: 13.1 µM

Question: What about the TGI (A549 NSCLC) of the same molecule?
Answer: > 100 µM

Question: What about the GI50 (ACHN renal) of the same molecule?
Answer: 8.63 µM

Question: And the TGI (ACHN renal)?
Answer: > 100 µM

Question: What about the GI50 (BT-549 breast) of the same molecule?
Answer: 1.9 µM

Question: What about the TGI (BT-549 breast) of the same molecule?
Answer: 15.9 µM

Question: And the GI50 (CAKI-1 renal)?
Answer: 5.5 µM

Question: And the TGI (CAKI-1 renal)?
Answer: > 100 µM

Question: And the GI50 (CCRF-CEM leukemia)?
Answer: 1.31 µM

Question: What about the TGI (CCRF-CEM leukemia) of the same molecule?
Answer: 76.4 µM

Question: And the GI50 (COLO 205 colon)?
Answer: 11.6 µM

Question: And the TGI (COLO 205 colon)?
Answer: 32.1 µM

Question: What about the GI50 (DU-145 prostate) of the same molecule?
Answer: 16.7 µM

Question: And the TGI (DU-145 prostate)?
Answer: > 100 µM

Question: What about the GI50 (EKVX NSCLC) of the same molecule?
Answer: 27.4 µM

Question: And the TGI (EKVX NSCLC)?
Answer: > 100 µM

Question: What about the GI50 (HCC-2998 colon) of the same molecule?
Answer: 5.31 µM

Question: And the TGI (HCC-2998 colon)?
Answer: 27.3 µM

Question: What about the GI50 (HCT-116 colon) of the same molecule?
Answer: 3.14 µM

Question: What about the TGI (HCT-116 colon) of the same molecule?
Answer: 19.3 µM

Question: And the GI50 (HCT-15 colon)?
Answer: 2.65 µM

Question: And the TGI (HCT-15 colon)?
Answer: 46.8 µM

Question: What about the GI50 (HL-60(TB) leukemia) of the same molecule?
Answer: 1.75 µM

Question: What about the TGI (HL-60(TB) leukemia) of the same molecule?
Answer: 4.34 µM

Question: What about the GI50 (HOP-62 NSCLC) of the same molecule?
Answer: 4.14 µM

Question: What about the TGI (HOP-62 NSCLC) of the same molecule?
Answer: 29.5 µM

Question: And the GI50 (HOP-92 NSCLC)?
Answer: 1.55 µM

Question: And the TGI (HOP-92 NSCLC)?
Answer: 16.1 µM

Question: And the GI50 (HS 578T breast)?
Answer: 3.81 µM

Question: And the TGI (HS 578T breast)?
Answer: 40.8 µM

Question: And the GI50 (HT29 colon)?
Answer: 3.18 µM

Question: What about the TGI (HT29 colon) of the same molecule?
Answer: 35.6 µM

Question: What about the GI50 (IGROV1 ovarian) of the same molecule?
Answer: 7.62 µM

Question: What about the TGI (IGROV1 ovarian) of the same molecule?
Answer: 55.7 µM

Question: And the GI50 (K-562 leukemia)?
Answer: 4.36 µM

Question: What about the TGI (K-562 leukemia) of the same molecule?
Answer: 47.3 µM

Question: What about the GI50 (KM12 colon) of the same molecule?
Answer: 3.92 µM

Question: And the TGI (KM12 colon)?
Answer: 34.6 µM

Question: And the GI50 (LOX IMVI melanoma)?
Answer: 1.65 µM

Question: What about the TGI (LOX IMVI melanoma) of the same molecule?
Answer: 9.6 µM

Question: And the GI50 (M14 melanoma)?
Answer: 6.1 µM

Question: And the TGI (M14 melanoma)?
Answer: 87 µM

Question: And the GI50 (MALME-3M melanoma)?
Answer: 15.9 µM

Question: And the TGI (MALME-3M melanoma)?
Answer: 41.7 µM

Question: And the GI50 (MCF7 breast)?
Answer: 3.07 µM

Question: And the TGI (MCF7 breast)?
Answer: 13.8 µM

Question: And the GI50 (MDA-MB-231 breast)?
Answer: 1.53 µM

Question: And the TGI (MDA-MB-231 breast)?
Answer: 5.45 µM

Question: And the GI50 (MDA-MB-435)?
Answer: 5.77 µM

Question: What about the TGI (MDA-MB-435) of the same molecule?
Answer: 60.3 µM

Question: What about the GI50 (MOLT-4 leukemia) of the same molecule?
Answer: 0.704 µM

Question: What about the TGI (MOLT-4 leukemia) of the same molecule?
Answer: > 100 µM

Question: And the GI50 (NCI-H226 lung)?
Answer: 2.1 µM

Question: What about the TGI (NCI-H226 lung) of the same molecule?
Answer: 7.91 µM

Question: And the GI50 (NCI-H23 lung)?
Answer: 7.19 µM

Question: What about the TGI (NCI-H23 lung) of the same molecule?
Answer: 67.4 µM

Question: What about the GI50 (NCI-H460 lung) of the same molecule?
Answer: 3.63 µM

Question: What about the TGI (NCI-H460 lung) of the same molecule?
Answer: 21.1 µM

Question: And the GI50 (NCI-H522 lung)?
Answer: 5.56 µM

Question: What about the TGI (NCI-H522 lung) of the same molecule?
Answer: 26.4 µM

Question: What about the GI50 (NCI/ADR-RES ovarian) of the same molecule?
Answer: 2.86 µM

Question: And the TGI (NCI/ADR-RES ovarian)?
Answer: 15.2 µM

Question: And the GI50 (OVCAR-3 ovarian)?
Answer: 3.17 µM

Question: What about the TGI (OVCAR-3 ovarian) of the same molecule?
Answer: 14.5 µM

Question: What about the GI50 (OVCAR-4 ovarian) of the same molecule?
Answer: 3.6 µM

Question: What about the TGI (OVCAR-4 ovarian) of the same molecule?
Answer: 37.7 µM

Question: What about the GI50 (OVCAR-5 ovarian) of the same molecule?
Answer: 21.7 µM

Question: And the TGI (OVCAR-5 ovarian)?
Answer: > 100 µM

Question: What about the GI50 (OVCAR-8 ovarian) of the same molecule?
Answer: 2.5 µM

Question: What about the TGI (OVCAR-8 ovarian) of the same molecule?
Answer: 15.7 µM

Question: What about the GI50 (PC-3 prostate) of the same molecule?
Answer: 2.78 µM

Question: What about the TGI (PC-3 prostate) of the same molecule?
Answer: 22.8 µM

Question: What about the GI50 (RPMI-8226 leukemia) of the same molecule?
Answer: 0.855 µM

Question: What about the TGI (RPMI-8226 leukemia) of the same molecule?
Answer: 8.81 µM

Question: And the GI50 (RXF 393 renal)?
Answer: 1.71 µM

Question: And the TGI (RXF 393 renal)?
Answer: 16.8 µM

Question: And the GI50 (SF-268 CNS)?
Answer: 2.31 µM

Question: What about the TGI (SF-268 CNS) of the same molecule?
Answer: 21.9 µM

Question: What about the GI50 (SF-295 CNS) of the same molecule?
Answer: 2.08 µM

Question: And the TGI (SF-295 CNS)?
Answer: 10.6 µM

Question: And the GI50 (SF-539 CNS)?
Answer: 5.48 µM

Question: And the TGI (SF-539 CNS)?
Answer: 31 µM

Question: What about the GI50 (SK-MEL-2 melanoma) of the same molecule?
Answer: 6.04 µM

Question: What about the TGI (SK-MEL-2 melanoma) of the same molecule?
Answer: 24.8 µM

Question: What about the GI50 (SK-MEL-28 melanoma) of the same molecule?
Answer: 19.8 µM

Question: And the TGI (SK-MEL-28 melanoma)?
Answer: > 100 µM

Question: And the GI50 (SK-MEL-5 melanoma)?
Answer: 2.8 µM

Question: And the TGI (SK-MEL-5 melanoma)?
Answer: 10.4 µM

Question: And the GI50 (SK-OV-3 ovarian)?
Answer: 10.1 µM

Question: What about the TGI (SK-OV-3 ovarian) of the same molecule?
Answer: 62.8 µM

Question: What about the GI50 (SN12C renal) of the same molecule?
Answer: 2.42 µM

Question: And the TGI (SN12C renal)?
Answer: 12.2 µM

Question: And the GI50 (SNB-19 CNS)?
Answer: 5.02 µM

Question: What about the TGI (SNB-19 CNS) of the same molecule?
Answer: 25.4 µM

Question: What about the GI50 (SNB-75 CNS) of the same molecule?
Answer: 2.55 µM

Question: And the TGI (SNB-75 CNS)?
Answer: 12.6 µM

Question: What about the GI50 (SR leukemia) of the same molecule?
Answer: 3.52 µM

Question: What about the TGI (SR leukemia) of the same molecule?
Answer: 42.9 µM

Question: And the GI50 (SW-620 colon)?
Answer: 4.92 µM

Question: What about the TGI (SW-620 colon) of the same molecule?
Answer: 94.1 µM

Question: And the GI50 (T-47D breast)?
Answer: 13.3 µM

Question: And the TGI (T-47D breast)?
Answer: > 100 µM

Question: And the GI50 (TK-10 renal)?
Answer: 32.8 µM

Question: What about the TGI (TK-10 renal) of the same molecule?
Answer: > 100 µM

Question: What about the GI50 (U251 CNS) of the same molecule?
Answer: 2.83 µM

Question: What about the TGI (U251 CNS) of the same molecule?
Answer: 17.2 µM

Question: And the GI50 (UACC-257 melanoma)?
Answer: 38.4 µM

Question: What about the TGI (UACC-257 melanoma) of the same molecule?
Answer: > 100 µM

Question: What about the GI50 (UACC-62 melanoma) of the same molecule?
Answer: 4.95 µM

Question: What about the TGI (UACC-62 melanoma) of the same molecule?
Answer: 25.2 µM

Question: And the GI50 (UO-31 renal)?
Answer: 2.52 µM

Question: And the TGI (UO-31 renal)?
Answer: 59.6 µM
